“Also recorded” adds a separate entry of the source.
Experiments:
Format in all cases: cell-based, human
[1] = test system: hypermethylated neuroblastoma cell lines; test: Telomerase inhibitor treatment of hypermethylated neuroblastoma cell lines; conditions: two neuroblastoma cell lines hypermethylated in region 2 of the TERT promoter, 5 μM for 5 weeks
[2] = test system: glioma G179 tumour-initiating cells; test: Telomerase inhibition, cell population doubling analysis, G179 TIC line; conditions: Imetelstat 5 μM twice a week
Text: Samples were obtained with patients' consent according to the Research Ethics Boards at The Hospital for Sick Children and Toronto Western Hospital. Fetal Neural Stem (NS) HF240 cells, human Mesenchymal Progenitor cells, human umbilical cord perivascular cells, and human skin-derived precursors hSKPs were previously described (Castelo-Branco et al. Clin Cancer Res. 2011 Jan. 1; 17(1):111-21). Glioma tumour-initiating cell (TIC) lines G179 and GLINS1 were derived from patients diagnosed with classic glioblastoma multiforme and maintained as previously described (Castelo-Branco et al., 2011). All cell lines and patient samples are described in Table 1.
HF240 normal neural stem cell line and the G179 TIC line were treated twice a week with 5 μM Imetelstat telomerase inhibitor. Cell population doubling analysis after treatment was then determined.

[3] = test system: neuroblastoma cell line (CHLA90); test: Telomerase inhibitor treatment of unmethylated neuroblastoma cell line CHLA90; conditions: CHLA90, unmethylated within region 2 of the TERT promoter, evidence of ALT; 5 μM for 5 weeks

Imetelstat
response to treatment (growth and viability) [1]: responded
response to treatment (growth and viability) ([1]; listed as imetelstat): inhibitory effect on growth and viability
growth / replicative potential (cell population doubling) [2]: inhibit growth; also recorded: loss of replicative potential
response to treatment (growth and viability) [3]: did not

Source: patent US10597730B2, “Method of diagnosing cancer” (The Hospital for Sick Children, priority 2012, dated 2020)
